Reference: PubChem BioAssay (NCI)
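Dose response: 5 concentrations. Exposure: 48 h. Format: 96-well plates. Endpoint: linear interpolation; highest concentration if not reached. Here, GI50 denotes the concentration required for 50% inhibition of growth. TGI marks complete inhibition of growth.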

Assays:
Test in all cases: NCI tumour cell line growth inhibition, 48 h
[1] = tested on: NCI-H23 lung
[2] = tested on: OVCAR-5 ovarian
[3] = tested on: HCT-116 colon
[4] = tested on: UACC-257 melanoma
[5] = tested on: NCI-H460 lung
[6] = tested on: OVCAR-8 ovarian
[7] = tested on: CAKI-1 renal
[8] = tested on: SK-OV-3 ovarian
[9] = tested on: TK-10 renal
[10] = tested on: U251 CNS

SMILES: O=C(Nc1cc(Cl)cc(Cl)c1)c1ccc(NC2=C(Cl)C(=O)N(Cc3ccc(Cl)cc3Cl)C2=O)cc1
- GI50 [1]: 3.71 µM
- TGI [1]: 19.2 µM
- GI50 [2]: > 100 µM
- TGI [2]: > 100 µM
- GI50 [3]: 4.06 µM
- TGI [3]: 16.9 µM
- GI50 [4]: 24.8 µM
- TGI [4]: 53.1 µM
- GI50 [5]: 16.6 µM
- TGI [5]: > 100 µM
- GI50 [6]: 21.6 µM
- TGI [6]: 87.2 µM
- GI50 [7]: 36.8 µM
- TGI [7]: > 100 µM
- GI50 [8]: 55.3 µM
- TGI [8]: > 100 µM
- GI50 [9]: 0.768 µM
- TGI [9]: 26 µM
- GI50 [10]: 16.8 µM
- TGI [10]: 51.6 µM

SMILES: O=C(CNc1ccc2c(c1)C(=O)c1ccccc1C2=O)Nc1ccc2c(c1)C(=O)c1ccccc1C2=O
- GI50 [1]: 0.304 µM
- TGI [1]: 1.09 µM
- GI50 [2]: 1.84 µM
- TGI [2]: 3.4 µM
- GI50 [3]: 0.24 µM
- TGI [3]: 0.711 µM
- GI50 [4]: 1.49 µM
- TGI [4]: 2.99 µM
- GI50 [5]: 1.28 µM
- TGI [5]: 2.88 µM
- GI50 [6]: 0.423 µM
- TGI [6]: 2.03 µM
- GI50 [7]: 1.5 µM
- TGI [7]: 3.03 µM
- GI50 [8]: 1.82 µM
- TGI [8]: 6.99 µM
- GI50 [9]: 1.7 µM
- TGI [9]: 3.17 µM
- GI50 [10]: 0.449 µM
- TGI [10]: 1.57 µM

SMILES: CC(C)c1ccc(C2C3=C(N=C4SCC(=O)N42)C(=O)c2ccccc23)cc1 (stereo not given)
- TGI [1]: > 100 µM
- TGI [2]: > 100 µM
- TGI [3]: > 100 µM
- TGI [4]: > 100 µM
- TGI [5]: > 100 µM
- TGI [6]: > 100 µM
- TGI [7]: > 100 µM
- TGI [8]: > 100 µM
- TGI [9]: > 100 µM
- TGI [10]: > 100 µM

SMILES: COC(=O)C(=O)OC1(C(C)=O)CC2(c3ccccc3)OC1(c1ccccc1)c1ccccc12 (stereo not given)
- TGI [1]: 33.3 µM
- TGI [2]: 63 µM
- TGI [3]: 33.8 µM
- TGI [4]: 31.6 µM
- TGI [5]: 36.2 µM
- TGI [6]: 30.3 µM
- TGI [7]: 39.9 µM
- TGI [8]: 95.5 µM
- TGI [9]: 70.6 µM
- TGI [10]: 30.5 µM

SMILES: NC(N)=N/N=C\c1cccc(OCc2ccccc2)c1
- GI50 [1]: 11.7 µM
- TGI [1]: 27.6 µM
- GI50 [2]: 11.5 µM
- TGI [2]: 33.7 µM
- GI50 [3]: 1.84 µM
- TGI [3]: 3.96 µM
- GI50 [4]: 1.82 µM
- TGI [4]: 4.07 µM
- GI50 [5]: 2.55 µM
- TGI [5]: 7.79 µM
- GI50 [6]: 6.58 µM
- TGI [6]: 38.8 µM
- GI50 [7]: 7.5 µM
- TGI [7]: 22.2 µM
- GI50 [8]: 10.5 µM
- TGI [8]: 22.3 µM
- GI50 [9]: 12.6 µM
- TGI [9]: 39.1 µM
- GI50 [10]: 1.87 µM
- TGI [10]: 4.12 µM

SMILES: Cc1ccc(-n2c3c(c4c(CN(C)C)c(O)ccc42)CCc2ccccc2C3=O)cc1
- GI50 [1]: 14.6 µM
- TGI [1]: 29.6 µM
- GI50 [2]: 19.7 µM
- TGI [2]: 52.9 µM
- GI50 [3]: 14.4 µM
- TGI [3]: 27.8 µM
- GI50 [4]: 17.7 µM
- TGI [4]: 34 µM
- GI50 [5]: 18.3 µM
- TGI [5]: 41.9 µM
- GI50 [6]: 16.9 µM
- TGI [6]: 41.8 µM
- GI50 [7]: 17.2 µM
- TGI [7]: 44.1 µM
- GI50 [8]: > 100 µM
- TGI [8]: > 100 µM
- GI50 [9]: 18.9 µM
- TGI [9]: 35.6 µM
- GI50 [10]: 15.6 µM
- TGI [10]: 30.5 µM

SMILES: CC[C@H](Nc1nc(NCc2cnc(C)cc2C)c2ncn(C(C)C)c2n1)[C@@H](C)O
- GI50 [1]: 0.334 µM
- TGI [1]: 2.15 µM
- GI50 [2]: 0.282 µM
- TGI [2]: > 100 µM
- GI50 [3]: 0.314 µM
- TGI [3]: > 100 µM
- GI50 [4]: 0.41 µM
- TGI [4]: > 100 µM
- GI50 [5]: 0.327 µM
- TGI [5]: 15.7 µM
- GI50 [6]: 0.382 µM
- TGI [6]: > 100 µM
- GI50 [7]: 0.269 µM
- TGI [7]: > 100 µM
- GI50 [8]: 3.89 µM
- TGI [8]: > 100 µM
- GI50 [9]: 0.625 µM
- TGI [9]: > 100 µM
- GI50 [10]: 0.333 µM
- TGI [10]: > 100 µM
